This note sets out measurements from patent US8815875B2 (Merck Sharp & Dohme Corp., priority 2008, dated 2014).

pKd: −log10 of the molar value. Bounds are passed on as bounds.

What is called pKd is −log10 of the Kd, conventionally taken in molar units.

Assay [1] deals with FABP4 (Homo sapiens, UniProt P15090). The assay can be described thus: TdF (Temperature Dependence Fluorescence) assay, thermal shift, FABP4. It is filed as binding. The essentials: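 Binding measured as ΔTm versus protein alone; binding constants derived by nonlinear fitting with ΔHL set to −7 kcal/mol and ΔCpL to zero.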
FABP4, sequence (P15090 whole entry, species assumed): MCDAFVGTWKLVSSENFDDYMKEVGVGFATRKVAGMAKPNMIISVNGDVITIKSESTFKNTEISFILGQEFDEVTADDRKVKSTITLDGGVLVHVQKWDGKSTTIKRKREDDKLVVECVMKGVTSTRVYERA
Assay [2] has as its target FABP5 (Homo sapiens, UniProt Q01469). The assay can be described thus: TdCD (Temperature-dependent Circular Dichroism) assay, FABP5. The format is binding. Conditions: T=20° C.; compounds tested at 50 μM and 25 μM. The source says:
[formula] (see Brandts et al and Mayhood et al, shown above) where ΔHL (T) is the van't Hoff enthalpy of ligand binding at temperature T and ΔCpL is the heat capacity upon ligand binding. For simplicity, the ΔCpL and ΔHL (T) were set to zero and −7 kcal/mol respectively. […] TdCD (Temperature-dependent Circular Dichroism) Assay for FABP3/4/5
JASCO 810 spectropolarimeter was used to measure Circular Dichroism (CD) spectra and temperature-dependent protein unfolding profiles. The instrument is equipped with a 6-cell piezoelectric temperature controller. Ellipticity was monitored at 226 nm as a function of temperature with a 1 mm path length cell. The scan rate was 1° C./min with a 4 s response time and 30 s equilibration between measurements.
10 mM stocks of individual compounds were made in 100% DMSO. […] DMSO was added to protein-alone (apo) samples to 1% to compensate for DMSO amounts in protein+ligand samples.
Briefly, the To (midpoint of unfolding for the unliganded protein) was calculated from best fit of the unfolding data to the equation below:
[formula] Where, Yobs is the observed ellipticity value at any temperature T, Yn and Yu are the predicted ellipticity values for fully folded and unfolded species, respectively, mn and mu are slope correction for changes in Yn and Yu with respect to changes in temperature. T0 is the midpoint temperature at which the unliganded protein unfolds and ΔHu and ΔCpu are the heat of unfolding and heat capacity of unfolding, respectively for the unliganded species.
In presence of ligand, the midpoint temperature (Tm) defines where the equilibrium concentrations of unfolded and folded species are equal. Incorporation of the unliganded free energy of binding and subsequent thermodynamic substitution yielded the binding constant of the ligand at the Tm value of unfolding:
[formula] where, T0 is the midpoint of unfolding for unliganded protein and Tm is the midpoint of unfolding in presence of ligand. [LTm] is free ligand at Tm.
Based on estimates for enthalpy of binding, ΔHL (estimated to be −7 kcal/mol) and ligand binding heat capacity ΔCpL (set to be zero), the ligand binding association constant (KL) at temperature T=20° C. were calculated as below.
For orientation: Circular dichroism is the unequal absorption of left and right circularly polarised light.

FABP5, sequence (Q01469 whole entry, species assumed): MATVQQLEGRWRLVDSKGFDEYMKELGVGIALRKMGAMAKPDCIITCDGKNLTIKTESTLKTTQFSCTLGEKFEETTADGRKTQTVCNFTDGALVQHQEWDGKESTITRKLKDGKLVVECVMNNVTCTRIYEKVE

Consider `O=c1cc(COc2csc(C(F)(F)F)c2)[nH]c2nc(-c3ccccc3)nn12` [1-5], for which the “FABP4 TdF Kd” value in assay [1] is on record as “B (0.5 ≦ B < 0.001 μM)”. This molecule had a pKd in assay [2] greater than 6.30.

For the molecule `O=c1cc(CN2CCc3c(Br)cccc32)[nH]c2nc(-c3ccccc3)nn12` [1-17], in assay [1], the “FABP4 TdF Kd” value was “B (0.5 ≦ B < 0.001 μM)”. The same molecule had a negative logarithm of the Kd (pKd) in assay [2] of less than 6.30.

`CC1(C)CCCC(OCc2cc(=O)n3nc(-c4ccccc4)nc3[nH]2)C1` (centres unmarked) [1-152]: in assay [1], the “FABP4 TdF Kd” value was “B (0.5 ≦ B < 0.001 μM)”. In assay [2], this molecule gave a pKd greater than 6.30.

Regarding `O=c1cc(CN2CCc3c(Cl)cccc32)[nH]c2nc(-c3ccccc3)nn12` [6-3], in assay [1], the “FABP4 TdF Kd” value is on record as “B (0.5 ≦ B < 0.001 μM)”. For the same molecule, the negative-log Kd (pKd) in assay [2] was less than 6.30.

On to `Cc1c(Cl)cccc1N(C)Cc1cc(=O)n2nc(-c3ccccc3)nc2[nH]1` [6-4], for which, in assay [1], the “FABP4 TdF Kd” value is listed as “B (0.5 ≦ B < 0.001 μM)”. In addition, the pKd in assay [2] was less than 6.30.

As for `O=c1cc(COc2cccc(Cl)c2C2CC2)[nH]c2nc(-c3ccccc3)nn12` [20-2], the “FABP4 TdF Kd” value in assay [1] is “B (0.5 ≦ B < 0.001 μM)”. Besides, the pKd in assay [2] was greater than 6.30.

In assay [2], `O=c1c(Cl)c(COc2cccc(Cl)c2C2CC2)[nH]c2nc(-c3ccccc3)nn12` [24-1] showed a negative-log Kd (pKd) greater than 6.30.

Turning to `O=c1cc(COc2cccc(Cl)c2C2CCC2)[nH]c2nc(-c3ccccc3)nn12` [26-3], in assay [1], the “FABP4 TdF Kd” value is listed as “B (0.5 ≦ B < 0.001 μM)”. In assay [2], this molecule gave a pKd greater than 6.30.

As for `CN(C(=O)C1(OCc2[nH]c3nc(-c4ccccc4)nn3c(=O)c2Cl)CCCCC1)C1CCCCC1` [50-4], the “FABP4 TdF Kd” value in assay [1] was “B (0.5 ≦ B < 0.001 μM)”.

Take `O=C(NCC1(CO)CCCC1)C1(OCc2[nH]c3nc(-c4ccccc4)nn3c(=O)c2Cl)CCCCC1` [50-5]: the pKd in assay [1] is no less than 9.00.

Turning to `O=C(NCC1(CO)CCC1)C1(OCc2[nH]c3nc(-c4ccccc4)nn3c(=O)c2Cl)CCCCC1` [50-6], in assay [1], the “FABP4 TdF Kd” value is on record as “B (0.5 ≦ B < 0.001 μM)”.

For the molecule `O=c1nc(SCc2cccc(Cl)c2Cl)[nH]c2nc(-c3ccccc3)nn12` [51-4], in assay [1], the pKd was less than 6.30.

`O=c1cc(CSc2cccc(Cl)c2C2CC2)[nH]c2nc(-c3ccccc3)nn12` [52-4]: in assay [1], the negative logarithm of the Kd (pKd) was no less than 9.00.

On to `O=c1cc(CSc2cccc(Cl)c2C2CCC2)[nH]c2nc(-c3ccccc3)nn12` [52-5], for which the pKd in assay [1] was no less than 9.00.

Take `O=C(O)c1c(Cl)cccc1OCc1cc(=O)n2nc(C(F)(F)F)nc2[nH]1` [53-3]: in assay [1], the negative-log Kd (pKd) was less than 6.30.

Take `O=C(O)C1(OCc2cc(=O)n3nc(C(F)(F)F)nc3[nH]2)CCCCC1` [54-1]: the negative-log Kd (pKd) in assay [1] is less than 6.30.
